Assay results taken from patent US6339151B1, “Enzyme catalyzed therapeutic agents” (NewBiotics, Inc., priority 1998, dated 2002).

Key:
Breast (MDA 468) = assay: Alamar Blue Assay; assay type: cell-based
Normal Cells = assay: Alamar Blue Assay, mean over normal cells; assay type: cell-based; details: mean of the three normal cell types; read-out: mean IC50 (X̄)
Tumor Cells = assay: Alamar Blue Assay, mean over tumor cells; assay type: cell-based; details: mean of the three tumor cell lines; read-out: mean IC50 (X̄)
[1] = test system: Colon Epithelium (CCD18co); assay: Alamar Blue Assay; assay type: cell-based; details: Homo sapiens, CCD-18Co
Breast (MCF7) = assay: Alamar Blue Assay; assay type: cell-based; details: Homo sapiens
Lung Epithelium (W138) = assay: Alamar Blue Assay; assay type: cell-based
Sarcoma (Saos 2) = assay: Alamar Blue Assay; assay type: cell-based; details: Homo sapiens
Skin Fibroblast (DET551) = assay: Alamar Blue Assay; assay type: cell-based
[2] = test system: CCD18co (normal colon epithelium); assay: Crystal violet cell proliferation assay; assay type: cell-based, human; details: for IC50: Homo sapiens, CCD-18Co
Procedure: (§1) Two cell lines, H630R10 (Copur, et al. (1995)) and normal colon epithelial cells, CCD18co (ATCC) were used in these assays. The H630P (Copur et al. (1995)) cell line was selected for resistance to 10 μM 5-FU to give rise to H630R10. The characterization of these cell lines which expresses an elevated level of the TS enzyme. A normal colon epithelial cell type CCD18co (available from the ATCC) was used for comparison with H630R10 for sensitivity to test compounds.
(§2) The ability of the test compounds to block proliferation of cells was determined by the crystal violet procedure (Sugarman et al. (1985) and Antelman et al. (1995)).
(§3) Compounds were dissolved in dimethyl sulfoxide to a concentration of 1M. They were further diluted as necessary into DMEM cell culture medium, and subsequently into the first wells of the 96 Well microtiter plate. Each concentration was tested in triplicate on the target cell line. Compound concentrations from 1 μM to 3000 μM were tested. Cells were incubated with compound for 72 hours, the plates were washed, and the cells fixed with methanol and stained with crystal violet as described in Sugarman et al. ([…]) and Antelman, et al. (1995).

[3] = test system: H630R10 (colon cancer cell line); assay: Crystal violet cell proliferation assay; assay type: cell-based, human; details: for IC50: Homo sapiens
Procedure: as §1, §2, §3

[4] = test system: Metastatic Carcinoma (Rx) breast cells; details: 10 samples; cited from earlier work
[5] = test system: Metastatic Carcinoma (UT) breast cells; details: 4 samples; cited from earlier work
[6] = test system: Primary Carcinoma (UT) breast cells; details: 19 samples; cited from earlier work
[7] = Table 6, H630R10, 72 hours, standard error less than 20%

O=c1[nH]cc(F)c(=O)[nH]1 [5-Fluorouracil, 5-fluorouracil]
IC50 (Breast (MDA 468)): 0.4 µM | IC50 (Normal Cells): 0.57 µM | IC50 (Tumor Cells): 4.1 µM | IC50 [1]: 0.2 µM | IC50 (Breast (MCF7)): 0.61 µM | IC50 (Lung Epithelium (W138)): 0.4 µM | IC50 (Sarcoma (Saos 2)): 11.3 µM | IC50 (Skin Fibroblast (DET551)): 1.1 µM

O=c1[nH]c(=O)n([C@H]2C[C@H](O)[C@@H](CO)O2)cc1/C=C/Br [BVDU, (E)-5-(2-bromovinyl)-2′-deoxyuridine]
IC50 ([2]; Table 6, CCD18co, 72 hours, standard error less than 20%): 2540 ± 58.2 µM | activity in the proliferation assay ([3]; CCD18co and H630R10, Table 6 line 2): little activity | difference in sensitivity of the two cell lines ([3]; CCD18co vs H630R10): no significant difference | IC50 [3, 7]: 2880 ± 54.5 µM

O=c1[nH]c(=O)n([C@H]2C[C@H](O)[C@@H](CO)O2)cc1F [Compound 5-FUdR, 5-fluoro-2′-deoxyuridine]
IC50 ([2]; Table 7, CCD18co (normal colon epithelium), representative data from several assays, triplicate wells): 9.5 µM | fold more sensitive CCD18co than H630-R10 ([2]; normal colon epithelial CCD18co vs H630-R10 colon tumor cells): approximately 18 fold | IC50 [3, 7]: 170 ± 2.4 µM | IC50 ([3]; Table 7, H630R10 (colon cancer cell line), representative data from several assays, triplicate wells): 170 µM

COc1cccc2c1C(=O)c1c(O)c3c(c(O)c1C2=O)C[C@@](O)(C(=O)CO)C[C@@H]3O[C@H]1C[C@H](N)[C@H](O)[C@H](C)O1 [Doxorubicin, doxorubicin]
Average IC50 [4]: 0.0198 ± 0.0127 µg/mL | Average IC50 [5]: 0.036 ± 0.0263 µg/mL | Average IC50 [6]: 0.0114 ± 0.0068 µg/mL
